≈ marks a conversion by molar mass, not a printed value. Read-outs that look alike come from different tables or passages of the source.
What was measured:
[1] = tested on: mitogen or antigen stimulated murine or human lymphocytes; test: Lymphocyte aggregation assay (PHA-PMA mitogen stimulated); assay type: cell-based; details: aggregates of greater than 100 cells, PHA-PMA stimulation; for minimal effective concentration: Homo sapiens, Lymphocyte, 12 h, read-out: Aggregation Assay Minimum Effective Conc.
Protocol: (§1) Immunomodulatory 3-aminosteroids (FIGS. 3–7 and Table I) were identified in vitro based on their ability to inhibit homo- or hetero-typic aggregation and subsequent proliferation of mitogen or antigen stimulated murine or human lymphocytes. Human or mouse lymphocytes were isolated from peripheral blood by Ficoll-Hypaque as described (Stoeckert et al., (1990) Exp. Hematol. 18. 1164–1170). For mitogen stimulation, 1×10^5 cells per well were plated in varying amounts of 3-aminosteroid compounds and assayed for aggregation and proliferation after twelve hours of stimulation by PHA-PMA mitogens. […] For antigen stimulation, lymphocytes were isolated from BALBc mice which had been sensitized to Aspergillus fumigatus antigen for three weeks and plated at 1×10^5 cells per well with or without 100 units of Aspergillus fulmigatus antigen. Cells were grown for three days and then scored for cellular aggregates and proliferation as described above in the presence or absence of increasing amounts of Compound-B or analogue compounds. […] Similar results were obtained in assays using antigen mediated response to compounds (not shown). […] All of the active compounds shown in Table I as well as rational modifications of these compounds as depicted in FIGS. 8–10 are embodiments of the invention

[2] = tested on: mitogen or antigen stimulated murine or human lymphocytes; test: PBMC proliferation assay (tritiated thymidine incorporation); assay type: cell-based; details: for IC50: Homo sapiens, Lymphocyte
Protocol: as §1

D2 naive mice = test: Bronchial hyperresponsiveness in D2 naive mice (APTI); assay type: in vivo, mouse; details: ip, FIG. 14
Protocol: DBA2, C57BL6 or B6D2F1 mice, five to six weeks of age, were obtained from the National Cancer Institute or Jackson Laboratories. Animals were housed in high-efficiency particulate filtered air laminar flow hoods in a virus and antigen free facility and allowed free access to pelleted rodent chow and water for three to seven days prior to experimental manipulation. The animal facilities were maintained at 22° C. and the light:dark cycle is automatically controlled (10:14 hour cycle).
Phenotyping and efficacy of pretreatment. Animals either received no pretreatment or were sensitized by nasal aspiration of Aspergillus fumigatus antigen to assess the effect on bronchial hyperresponsiveness, bronchoalveolar lavage and serum IgE. Mice were challenged with Aspergillus or saline intranasally (Monday, Wednesday and Friday for three weeks) and phenotyped twenty-four hours after the last dose. The effect of pretreatment by aminosteroids was used to assess the effect of down-regulating the IL-9 pathway in mice. To determine the bronchoconstrictor response, respiratory system pressure was measured at the trachea and recorded before and during exposure to the drug. Mice were anesthetized and instrumented as previously described. (Kleeberger et al., (1990) Am. J. Physiol. 258, L313–320; Levitt et al., (1995) Clin. Exp. Allergy 25, 61–63; Ewart et al., (1995) J. Appl. Physiol. 79, 560–566). Airway responsiveness was measured to one or more of the following: 5-hydroxytryptamine, acetylcholine, atracurium or a substance-P analogue. A simple and repeatable measure of the change in peak inspiratory pressure following bronchoconstrictor challenge was used which has been termed the Airway Pressure Time Index (APTI). The APTI was assessed by the change in peak respiratory pressure integrated from the time of injection until the peak pressure returns to baseline or plateau.
Active compounds identified in vitro were tested in vivo for their ability to suppress airway hyperresponsiveness, lung eosinophilia and serum Ig levels using assays described above. […]

[3] = tritiated thymidine incorporation, read-out: PBMC Proliferation ASSAY IC50
[4] = FIG. 11 and FIG. 12, mitogen-stimulated lymphocytes, read-out: IC50 for suppression of lymphocyte aggregation and proliferation
[5] = tritiated thymidine incorporation

C[C@@H](CC1CCOC1=O)C1CCC2C3CC[C@@H]4C[C@@H](NCCN)CC[C@]4(C)C3CC[C@@]21C (mixture of isomers) [Compound-K]
minimal effective concentration [1]: 10 µg/mL
IC50 [2, 3]: 0.31 µg/mL (≈ 0.697 µM)

COC(=O)CC[C@H](C)C1CCC2C3CC[C@@H]4C[C@@H](NCCNC(C)C)CC[C@]4(C)C3C[C@@H](O)[C@@]21C (some centres unmarked) [AA]
minimal effective concentration [1]: 10 µg/mL
IC50 [2, 3]: 0.42 µg/mL (≈ 0.856 µM)

COC(=O)CC[C@H](C)C1CCC2C3CC[C@@H]4C[C@@H](N)CC[C@]4(C)C3C[C@@H](O)[C@@]21C (some centres unmarked) [AB]
minimal effective concentration [1]: 10 µg/mL
IC50 [2, 3]: 2.54 µg/mL (≈ 6.26 µM)

COC(=O)CC[C@H](C)C1CCC2C3CC[C@@H]4C[C@@H](NCCN)CC[C@]4(C)C3C[C@@H](O)[C@@]21C (some centres unmarked) [AC]
minimal effective concentration [1]: 10 µg/mL
IC50 [2, 3]: 0.47 µg/mL (≈ 1.05 µM)

COC(=O)CC[C@H](C)C1CCC2C3C(CC[C@@]21C)[C@@]1(C)CC[C@H](NCCN)C[C@H]1C[C@@H]3OC(C)=O (some centres unmarked) [AD]
minimal effective concentration [1]: 10 µg/mL
IC50 [2, 3]: 0.29 µg/mL (≈ 0.591 µM)

COC(=O)CC[C@@H](C)C1CCC2C3C(CC[C@@]21C)[C@@]1(C)CC[C@H](N2CCNCC2)C[C@H]1C[C@H]3O (some centres unmarked) [AE]
minimal effective concentration [1]: 10 µg/mL
IC50 [2, 3]: 0.28 µg/mL (≈ 0.59 µM)

COC(=O)CC[C@H](C)C1CCC2C3C[C@@H](O)[C@@H]4C[C@@H](NCCCOCCCCOCCCN)CC[C@]4(C)C3CC[C@@]21C (some centres unmarked) [AF]
minimal effective concentration [1]: 10 µg/mL
IC50 [2, 3]: 2.41 µg/mL (≈ 4.06 µM)

COC(=O)CC[C@@H](C)C1CCC2C3C[C@@H](O)[C@H]4C[C@H](NCCN)CC[C@]4(C)C3CC[C@@]21C (some centres unmarked) [AG]
minimal effective concentration [1]: 10 µg/mL

COC(=O)CC[C@@H](C)C1CCC2C3CC[C@@H]4C[C@@H](NCCN)CC[C@]4(C)C3C[C@H](O)[C@@]21C (some centres unmarked) [AH]
minimal effective concentration [1]: 1 µg/mL
IC50 [2, 3]: 0.1 µg/mL (≈ 0.223 µM)

C[C@H](CCC(=O)O)C1CCC2C3CC[C@@H]4C[C@H](NCCN)CC[C@]4(C)C3C[C@H](O)[C@@]21C (some centres unmarked) [C]
minimal effective concentration [1]: > 10 µg/mL

COC(=O)CC[C@H](C)C1CCC2C3CC[C@@H]4C[C@@H](NCCCNCCCCNCCCN)CC[C@]4(C)C3CC[C@@]21C (some centres unmarked) [Compound-D]
minimal effective concentration [1]: 10 µg/mL
IC50 [2, 4]: 10 µg/mL (≈ 17.4 µM)
suppression of bronchial hyperresponsiveness (D2 naive mice): effective in suppressing bronchial hyperresponsiveness

C[C@@H](CNS(C)(=O)=O)C1CCC2C3CC[C@@H]4C[C@@H](NCCN)CC[C@]4(C)C3CC[C@@]21C (some centres unmarked) [Compound-F]
IC50 [2, 3]: 2.88 µg/mL (≈ 6.35 µM)

C[C@@H](CNS(C)(=O)=O)C1CCC2C3CC[C@@H]4C[C@@H](NCCN)CC[C@]4(C)C3CC[C@@]21C (some centres unmarked) [Compound-G]
minimal effective concentration [1]: 10 µg/mL

COC(=O)NC[C@@H](C)C1CCC2C3CC[C@H]4C[C@@H](NCCN)CC[C@]4(C)C3CC[C@@]21C (some centres unmarked) [Compound-H]
IC50 [2, 3]: 0.26 µg/mL (≈ 0.6 µM)
PBMC Proliferation ASSAY IC50 [2, 5]: 0.44 µg/mL

C[C@H](CC1CCOC1=O)C1CCC2C3CC[C@H]4C[C@@H](NCCN)CC[C@]4(C)C3CC[C@@]21C (some centres unmarked) [Compound-J]
minimal effective concentration [1]: 1 µg/mL
IC50 [2, 3]: 0.03 µg/mL (≈ 0.0675 µM)

C[C@H](CC1CCOC1=O)C1CCC2C3CC[C@H]4C[C@@H](N5CCCNCC5)CC[C@]4(C)C3CC[C@@]21C (some centres unmarked) [Compound-M]
minimal effective concentration [1]: 10 µg/mL

C[C@@H](COc1ccccn1)C1CCC2C3CC[C@@H]4C[C@@H](NCCN)CC[C@]4(C)C3CC[C@@]21C (some centres unmarked) [Compound-N]
Aggregation Assay Minimum Effective Conc. [1]: 1 to 10 µg/mL
PBMC Proliferation ASSAY IC50 [2, 5]: 0.06 µg/mL

C[C@@H](COc1ccccn1)C1CCC2C3CC[C@@H]4C[C@@H](NCCN)CC[C@]4(C)C3CC[C@@]21C (some centres unmarked) [Compound-O]
Aggregation Assay Minimum Effective Conc. [1]: 10 µg/mL
PBMC Proliferation ASSAY IC50 [2, 5]: 0.25 µg/mL

C[C@@H](COc1ccccn1)C1CCC2C3CC[C@@H]4C[C@@H](N5CCNCC5)CC[C@]4(C)C3CC[C@@]21C (some centres unmarked) [Compound-P]
minimal effective concentration [1]: > 10 µg/mL

C[C@H](CCC(=O)O)C1CCC2C3C(CC[C@@]21C)[C@@]1(C)CC[C@H](NCCN)C[C@H]1C[C@H]3O (some centres unmarked) [E]
minimal effective concentration [1]: > 10 µg/mL
IC50 [2, 4]: > 10 µg/mL

COC(=O)CC[C@H](C)C1CCC2C3CC(O)[C@@H]4C[C@@H](NCCNC(C)C)CC[C@]4(C)C3CC[C@@]21C (some centres unmarked) [R]
IC50 [2, 3]: 0.24 µg/mL (≈ 0.489 µM)

COC(=O)CC[C@H](C)C1CCC2C3CC[C@@H]4C[C@@H](NCCN)CC[C@]4(C)C3CC[C@@]21C (some centres unmarked) [S]
minimal effective concentration [1]: 10 µg/mL
toxicity remark in PBMC Proliferation ASSAY [2]: toxic
IC50 [2, 3]: < 0.1 µg/mL

COC(=O)CC[C@H](C)C1CCC2C3C(O)C[C@@H]4C[C@@H](NCCN)CC[C@]4(C)C3CC[C@@]21C (some centres unmarked) [T]
minimal effective concentration [1]: 10 µg/mL
IC50 [2, 3]: 2.77 µg/mL (≈ 6.17 µM)

CC(C)OC(=O)CC[C@H](C)C1CCC2C3C(O)C[C@@H]4C[C@@H](NCCN)CC[C@]4(C)C3CC[C@@]21C (some centres unmarked) [U]
Aggregation Assay Minimum Effective Conc. [1]: 1 to 10 µg/mL
IC50 [2, 3]: 0.4 µg/mL (≈ 0.839 µM)

CC(C)OC(=O)CC[C@H](C)C1CCC2C3C(O)C[C@@H]4C[C@@H](NCCN)CC[C@]4(C)C3CC[C@@]21C (some centres unmarked) [V]
Aggregation Assay Minimum Effective Conc. [1]: 10 µg/mL
PBMC Proliferation ASSAY IC50 [2, 5]: 0.41 µg/mL

COC(=O)CC[C@H](C)C1CCC2C3CC[C@@H]4C[C@@H](NCCN5CCCC5)CC[C@]4(C)C3C[C@@H](O)[C@@]21C (some centres unmarked) [W]
minimal effective concentration [1]: 10 µg/mL

COC(=O)CC[C@H](C)C1CCC2C3CC[C@@H]4C[C@@H](NCc5ccccn5)CC[C@]4(C)C3C[C@@H](O)[C@@]21C (some centres unmarked) [X]
minimal effective concentration [1]: 10 µg/mL

COC(=O)CC[C@H](C)C1CCC2C3CC[C@@H]4C[C@@H](NCCNc5ccccc5)CC[C@]4(C)C3C[C@@H](O)[C@@]21C (some centres unmarked) [Y]
minimal effective concentration [1]: 10 µg/mL

COC(=O)CC[C@H](C)C1CCC2C3CC[C@@H]4C[C@@H](NCCC5CCCN5C)CC[C@]4(C)C3C[C@@H](O)[C@@]21C (some centres unmarked) [Z]
minimal effective concentration [1]: 10 µg/mL
IC50 [2, 3]: 0.71 µg/mL (≈ 1.37 µM)
